Measured values taken from patent US20260243776A1, “A METHOD FOR DETECTING PROTEIN TARGETS OF AN ENZYME USING A BIOTIN LIGASE” (Leibniz-Institut für Alternsforschung - …, priority 2022, published 2026).
Residues, ends and D or L forms follow the SMILES beside them. *: point of attachment. Cbz = O=C(OCc1ccccc1)*

Columns and labels:
proteasome = test: Proximity labeling (BioID) with PSMA4-miniTurbo, streptavidin enrichment and DIA mass spectrometry, with proteasome inhibition; type: cell-based, Homo sapiens
Experimental: For the “BioID” experiments, HEK293T lines were seeded at the density of approximately 1.6×10^4 cells/cm2 and incubated for 24 hours to allow cell attachment to the culture dish. The expression of BirA* or miniTurbo fusion proteins were induced by a single addition of tetracycline stock (solved in ethanol) exposing the cells to its final concentration of […] in total for 4 days. 2 hours (miniTurbo lines) or 24 hours (BirA* lines) prior to cell harvesting, 50 μM biotin was added to the culture media. For identification of proteasome substrates, PSMA4-miniTurbo or miniTurbo expressing cells were treated with 20 μM MG132 for 4 hours and/or 10 μM KB02-JQ1 for 12 hours. Upon treatment, cells were washed 3×times with PBS and harvested by trypsinization. For each sample, a pellet corresponding to 20 million cells was collected and snap-frozen in liquid nitrogen.
Cell pellets were thawed on ice were resuspended in 4.75 ml of BioID lysis buffer (50 mM Tris pH 7.5; 150 mM NaCl; 1 mM EDTA; 1 mM EGTA; 1% (v/v) Triton X-100; 1 mg/ml aprotinin; 0.5 mg/ml leupeptin; 250 U turbonuclease; 0.1% (w/v) SDS), followed by 1 hour incubation in the rotator mixer (STARLAB RM Multi-1) (15×rpm) at 4° C. to aid the lysis. Samples were then briefly sonicated in a Bioruptor Plus for 5 cycles (30 s ON/30 s OFF) at high setting and afterwards centrifuged at 20817×g, for 30 minutes at 4° C. to remove any debris.
Streptavidin coated Sepharose beads were acetylated by two successive treatments with 10 mM Sulfo-NHS-Acetate for 30 minutes at room temperature. The reaction was then quenched with 1 M Tris pH 7.5 (1:10 v/v) and then the beads were washed with 1×PBS and centrifuged at 2000×g for 1 minute at room temperature. This washing was performed 3 times in total. Cleared lysates were transferred to new tubes, 50 μl of acetylated beads added, and samples were incubated for 3 hours on the rotator (15×rpm) at 4° C. This was followed by centrifugation at 2000×g for 5 minutes at 4° C. and removal of 4.5 ml of the supernatant from each sample. […]

[1] = system: proteasome chymotrypsin-like activity; test: Proteasome activity assay (LLVY-AMC cleavage) on cell lysates; type: cell-based, Homo sapiens; settings: lysates of HEK293T lines expressing BirA* fusion proteins or BirA* control; 24 hours with vs without tetracycline
Experimental: Proteasome activity assay: The proteasome activity assay (PAA) was performed using the 20S proteasome activity assay kit (Millipore, APT280) following the manufacturer instructions. In short, cell pellets were thawed in ice-cold lysis buffer (50 mM HEPES pH 7.5; 5 mM EDTA; 150 mM NaCl; 1% (v/v) Triton X-100; 2 mM ATP) and left on ice for 30 minutes with short vortex steps (VWR international, VWR/444-1372) every 10 minutes. Samples were centrifuged at 20817×g, for 15 minutes at 4° C. to remove any debris. For protein amount estimation the EZQ Protein Quantitation Kit (Invitrogen, R33200) was used. 50 μg of protein extract were incubated with fluorophore-linked peptide substrate (LLVY-7-amino-4-methylcoumarin, AMC) for 60 minutes at 37° C. Proteasome activity was measured by quantification of fluorescent units from cleaved AMC at 380/460 nm using a microplate reader m1000 (Tecan).

Compound	impact on the biotinylated proteins quantified by mass spectrometry (principal component analysis) (proteasome; HEK293T PSMA4-miniTurbo, 20 μM MG132 4 hours)	number of proteins enriched relative to miniTurbo control only in presence of MG132 (potential proteasome substrates) (proteasome; HEK293T PSMA4-miniTurbo, 20 μM MG132 4 hours, log 2 fold change>1 and Q value<0.05) [proteins]	enrichment of proteasome activators and ubiquitin in streptavidin pull downs, MG132-treated versus control cells (proteasome; HEK293T cells expressing PSMA4-miniTurbo, 20 μM MG132 for 4 hours, biotin 2 hours)	reduction of proteasome activity following addition of tetracycline [1]
CC(C)C[C@@H](C=O)NC(=O)[C@H](CC(C)C)NC(=O)[C@H](CC(C)C)NC(=O)OCc1ccccc1 [MG132] (Cbz-Leu-Leu-Leu-aldehyde)	clear impact	296	prominent enrichment of proteasome activators and ubiquitin	
CN(C)[C@@H]1C(O)=C(C(N)=O)C(=O)[C@@]2(O)C(O)=C3C(=O)c4c(O)cccc4[C@@](C)(O)[C@H]3C[C@@H]12 [tetracycline]				15-20%
